Assays:
[1] = tested on: humans; details: cited from earlier work
[2] = Acute toxicity and tolerance (MTD) of a single oral dose in Wistar rats; assay type: in vivo, rat; details: both sexes, Wistar, in vivo; rat, single oral dose
Protocol: (§1) The maximum tolerated dose (MTD) of orally administered 1,3-DMPA and 1,4-DMPA was determined in New Zealand white rabbits and Wistar rats.
(§2) Determination of MTD of orally-administered 1,3-DMPA in Wistar rats: The same general methods and procedures were followed as described above. This study involved forty animals randomly divided into four groups of ten animals (five male, five female) in each group. […] The MTD of a single oral dose of 1,3-DMPA was determined to be between 125 mg/kg and 250 mg/kg.
as §2, with “1,4-DMPA” for “1,3-DMPA”, “group. The groups were treated as follows: Group I (vehicle control—water), Group II (75 mg/kg), Group III (150 mg/kg), and Group IV (300 mg/kg). […] Gross pathological changes were not observed in the treated groups during necropsy.” for “group.”, “150” for “125”, “300 mg/kg in Wistar rats.” for “250 mg/kg.”

[3] = tested on: Wistar rats; assay: as above; assay type: in vivo, rat
Protocol: as §1, §2
as §2, with “1,4-DMPA” for “1,3-DMPA”, “group. The groups were treated as follows: Group I (vehicle control—water), Group II (75 mg/kg), Group III (150 mg/kg), and Group IV (300 mg/kg). […] Gross pathological changes were not observed in the treated groups during necropsy.” for “group.”, “150” for “125”, “300 mg/kg in Wistar rats.” for “250 mg/kg.”

[4] = tested on: human(s); assay: Comparative effects of 1,3-DMPA and 1,4-DMPA compounds in humans (self-administration); assay type: in vivo; details: male, 40 mg daily in a dietary supplement containing caffeine, at least seven days
Protocol: The compounds 1,3-DMPA, racemic 1,4-DMPA, (R)-1,4-DMPA, and (S)-1,4-DMPA were administered to human(s). A non-smoking person of normal weight ingested 40 mg 1,3-DMPA as part of a dietary supplement (dietary ingredients: arginine α-ketoglutarate, creatine monohydrate, β-alanine, caffeine, 1,3-dimethylpentylamine HCL, schisandra cinensis (berry) extract (standardized for schizandrol A)); powder form), self-administered daily for at least seven days. […] To compare the effects of 1,3-DMPA to the effects of 1,4-DMPA, this individual later ingested 1,4-DMPA (racemic) for at least seven days at a dose of 60 mg per day, combined with 250 mg caffeine.
To compare the effects of (R)-1,4-DMPA, and (S)-1,4-DMPA, the individual described above ingested each enantiomer separately. Starting dose was ˜20 mg per day, which was increased to 30 mg per day if treatment was continued. Doses were combined with 250 mg caffeine as described above. […] The dose was increased to 30 mg per day; the total duration of treatment was at least three weeks. […] Ingestion of (S)-1,4-DMPA (25-30 mg per day) with caffeine produced different effects. […] The individual ceased self-administering (S)-1,4-DMPA after several days of experiencing the latter effects.

[5] = tested on: cats and dogs; details: early animal studies; cited from earlier work
[6] = Acute toxicity and tolerance (MTD) of a single oral dose in New Zealand white rabbits; assay type: in vivo, rabbit; details: both sexes, New Zealand white, in vivo; rabbit, single oral dose
Protocol: as §1
(§3) Determination of MTD of orally-administered 1,3-DMPA in New Zealand white rabbits: Twenty-four rabbits (twelve male, twelve female) were quarantined for at least seven days and then were randomly divided into four groups with six animals (3 male and 3 female) in each group. […] Animals were observed daily for fourteen days following administration. Each animal's body weight, food intake, mortality, and natural orifices were monitored. Clinical observations included skin condition, gait, movement, neurological disorders, eye condition, feces, convulsions, tremors, activity rate, restlessness, grooming, sleep, aggressiveness, salivation, diarrhea, respiration, appetite, thirst and urine conditions. Other observations included fur condition, mucous membranes, presence or absence of secretions and excretions and autonomic activity, lacrimation, piloerection, pupil size, posture, arched back, distended abdomen, fur, mucous membrane, presence or absence of secretions, tail elevation, motor activity, urination and defecation, and response to handling as well as the presence of clonic or tonic movements, repetitive circling, bizarre behavior, self-mutilation and walking backwards. At the conclusion of the fourteen day monitoring period, gross pathological examination was carried out on all animals. Heart, lung, liver, kidneys, spleen, stomach, large intestine, small intestine, brain and skin were examined for any macroscopic lesions.
(§4) Determination of MTD of orally-administered 1,4-DMPA in New Zealand white rabbits: Thirty rabbits (fifteen male, fifteen female) were quarantined for at least seven days and then were randomly divided into five groups with six animals (3 male and 3 female) in each group. […] Animals were observed daily for fourteen days following administration. Each animal's body weight, food intake, mortality, and natural orifices were monitored. As above, clinical observations included observation of natural orifices for any abnormal secretions and monitoring for the presence or absence of secretions and excretions, monitoring of mucous membranes, fur and skin condition, mortality, gait, posture, arched back, distended abdomen, movement and motor activity, neurological disorders, eye condition and pupil size, feces, convulsions, tremors, tail elevation, activity rate, restlessness, grooming, sleep, aggressiveness, salivation, diarrhea, respiration, appetite, thirst and urine conditions, autonomic activity, lacrimation, piloerection, response to handling, as well as the presence of clonic or tonic movements, repetitive circling, bizarre behavior, self-mutilation and walking backwards. At the conclusion of the fourteen day monitoring period, gross pathological examination was carried out on all animals. Heart, lung, liver, kidneys, spleen, stomach, large intestine, small intestine, brain and skin were examined for any macroscopic lesions.

[7] = tested on: New Zealand white rabbits; assay: as above; assay type: in vivo, rabbit
Protocol: as §1, §3, §4

## CCC(C)CC(C)N (centres unmarked) [1,3-DMPA, 1,3-dimethylpentylamine, reference compound]
[1]; acute oral administration in humans
  vasopressor effects: vasopressor effects similar to the effects of caffeine
[1]; humans, following exercise
  glycerol and free fatty acid concentration (markers of lipolysis): increased levels of these markers of lipolysis
[1]; humans
  blood pressure: increase blood pressure to a modest degree
  heart rate and circulating catecholamines (norepinephrine and epinephrine): no effect on heart rate or on circulating catecholamines
  norepinephrine levels: no effect on norepinephrine levels
[2]
  LD50 at 14 days: 482 mg/kg
  MTD at 14 days: 125 to 250 mg/kg
[3]; rat, 250 mg/kg oral
  additional clinical signs: tremors
  food intake: decreased food intake on Day 3
[3]; rat, 250 mg/kg oral, preterminal mortality
  necropsy analysis: hyperemia in the stomach glandular mucosa; congestion of lungs, liver and adrenals; the presence of blood clots in the cranial cavity; and ballooning of the small intestine with reddish yellow fluid
[3]; rat, 250 mg/kg oral, ten animals per group, within 26 hours of dosing
  mortality: One preterminal mortality
[3]; rat, 50, 125, 250 mg/kg oral, all treatment groups
  mean body weight: consistent increase
[3]; rat, 50 and 125 mg/kg oral
  mean food intake: normal
[3]; rat, 50 and 125 mg/kg oral (lower dose groups)
  mortality: no mortalities
[3]; rat, all treatment groups 50, 125, 250 mg/kg oral
  clinical signs: piloerection, tail elevation, nasal discharge and hyperactivity
[4]
  CNS stimulation: CNS stimulation, including feelings of restlessness and jitteriness
  appetite: decreased appetite
  heart rate: increased heart rate
  mood: improved mood
  physical performance during exercise and strength training: improved physical performance
[5]
  vasopressor activity: exhibit vasopressor or vasoconstriction activity
[6]
  LD50 at 14 days: 324 mg/kg
  MTD at 14 days: 150 to 300 mg/kg
[7]; rabbit, 50 mg/kg or 150 mg/kg oral
  gross pathological observations: no changes
[7]; rabbit, 50 mg/kg oral
  behavioral observations: did not exhibit any behavioral aberrations
[7]; rabbit, 150 mg/kg oral, a few animals, hours 1-6 after administration
  clinical signs: tremors
[7]; rabbit, 300 mg/kg oral
  clinical signs: nasal discharge, salivation, tremors, convulsions and tachycardia
  gross necropsy of animals that died: reddish discoloration in the lungs, multiple watery cyst on the right median lobe of the liver and focal white patches
[7]; rabbit, 300 mg/kg oral, six animals per group, within four hours after dosing
  mortality: four animals in this group died
[7]; rabbit, 50, 150, 300 mg/kg oral, 14-day study period
  mean body weight: consistent increase
[7]; rabbit, 50, 150, 300 mg/kg oral, study period
  mean food intake: normal
[7]; rabbit, treatment groups 50-300 mg/kg, first observations following treatment
  food intake: initial decrease in food intake

Source: patent US20140080847A1, “Compositions and Methods for Affecting Energy Balance, Body Composition, Fitness, and Well-Being” (OEJM Products Holdings, LLC, priority 2012, published 2014)
